Data: the NIST ThermoML archive (doi:10.1021/je900290w)

Experiment: cn = amount concentration of the nth substance listed, in mol/dm3

CCCCCCCCCCCCn1cc[n+](C)c1.[Br-] [1-dodecyl-3-methylimidazolium bromide] + O
surface tension liquid-gas [mN/m]
Conditions	c1 = 0.0001	c1 = 0.0005	c1 = 0.0015	c1 = 0.005	c1 = 0.01	c1 = 0.02	c1 = 0.03	c1 = 0.04	c1 = 0.05
278.15 K	64.79	61.21	56.82	45.33	37.64	37.72	37.73	37.53	37.59
288.15 K	62.93	60.86	56.68	44.27	37.52	37.63	37.41	37.77	37.61
298.15 K	62.21	59.84	55.19	43.81	37.45	37.41	37.15	37.23	37.26
308.15 K	60.48	58.62	55.18	44.47	37.18	37.55	37.38	37.42	37.23
318.15 K	58.84	56.56	53.88	43.89	36.92	37.12	37.47	37.3	37.06
328.15 K	57.61	55.07	50.63	42.36	37.64	37.03	37.16	37.06	37.09

CCCCCCCCCCCCCCCCn1cc[n+](C)c1.[Br-] [1-hexadecyl-3-methylimidazolium bromide] + O
surface tension liquid-gas [mN/m]
Conditions	278.15 K	288.15 K	298.15 K	308.15 K	318.15 K	328.15 K
c1 = 5e-06	69.16	66.26	63.93	61.53	58.5	55.05
c1 = 2e-05	63.91	61.84	60	58.48	54.53	51.85
c1 = 0.0001	56.17	52.62	51.14	49.46	47.36	45.42
c1 = 0.0002	50.9	48.63	46.77	45.39	42.7	42.13
c1 = 0.0003	46.66	43.95	43.38	41.17	39.84	39.44
c1 = 0.0004	42.78	41.32	39.38	38.02	37.93	38
c1 = 0.0005	39.25	37.45	37.26	36.21	36.75	37.07
c1 = 0.0008	38.25	37.54	37.37	36.14	36.11	36.2
c1 = 0.0011	38.38	37.4	37.09	36.28	36.18	36.25
c1 = 0.002	38.11	37.87	37.19	36.97	36.12	36.15
c1 = 0.004	37.61	37.33	37.21	36.37	36.04	35.98

CCCCCCCCCCCCCCn1cc[n+](C)c1.[Br-] [1-methyl-3-tetradecylimidazolium bromide] + O
surface tension liquid-gas [mN/m]
Conditions	c1 = 5e-05	c1 = 0.0001	c1 = 0.0003	c1 = 0.0005	c1 = 0.001	c1 = 0.002	c1 = 0.004	c1 = 0.006	c1 = 0.008	c1 = 0.01
278.15 K	64.69	64.07	61.72	55.17	50.32	41.28	38.44	38.68	38.88	38.88
288.15 K	62.69	62.07	59.72	53.17	48.32	40.28	37.94	38.18	38.38	38.38
298.15 K	61.26	60.88	57.1	52.79	47.37	39.48	37.81	37.73	37.57	37.57
308.15 K	59.5	58.59	54.93	51.51	45.26	39.15	37.81	37.51	37.67	37.6
318.15 K	57.16	55.92	52.9	49.56	43.88	39.15	37.12	37.13	37.12	37.13
328.15 K	54.16	52.7	50.17	46.39	42.75	38.28	36.2	36.32	36.58	36.45
